In patent publication US20230105693A1, “ANTIMICROBIAL COMPOSITIONS” (Firmenich SA, priority 2020, published 2023):
Counter-ions that a name gives are not always drawn. Like-named read-outs stand apart in the source and are kept apart here.

What was measured:
[1] = Equivalent alkane carbon number (EACN) in model microemulsion system; type: physicochemical; conditions: C10E5/water/isopropyl myristate model system, 3% wt perfume ingredient
Description: EACN values provide information on polarity and surface activity of apolar ingredients. Tchakalova and Fieber (J. of Surfactants and Detergents, 2012, 15(2):167-177) classified perfume ingredients based on values of EACNmix, the EACN of a mixture consisting of a test perfume ingredient and a reference oil (isopropyl myristate). The same model system and method were used to measure the EACN values of perfume ingredients with antimicrobial activities. Different perfume ingredients were added to the model microemulsion system shown in Table 1, in which the nonionic pentaethylene glycol mono n-decyl ether (C10E5) was used as surfactant. Phase transition temperatures of the system from Winsor I to Winsor III, and from Winsor III to Winsor II were determined using a water bath. Alkanes with different alkane carbon numbers (octane, decane, dodecane and hexadecane) were used to establish a linear correlation curve between EACN and the PIT, which is the average of the transitions from Winsor I to Winsor III, and from Winsor III to Winsor II, respectively. EACNmix was then calculated based on the linear relationship and the measured PIT for systems containing different perfume ingredients. The EACN of the pure perfume ingredient was calculated based on the molar ratio of the tested PRMs in the oil phase using following equation: […]
wherein n and nref are the molar fractions of tested perfume ingredient and the reference ingredient (i.e., isopropyl myristate) in the oil phase, respectively.

[2] = tested on: Escherichia coli ATCC 10536; assay: Robotic BCT test of perfume ingredients in model surfactant bases; type: cell-based; conditions: for log reduction at 0.5 %: Escherichia coli, ATCC10536, 45 s; for Log reduction (Log CFU/mL) Base 3: Base 3: SLES 1.5%, coco-glucoside 0.75%; for Log reduction (Log CFU/mL) Base 4: Base 4: SLES 2.25%, sodium xylene sulfonate 3%
Description: The surfactant bases tested included 1) sodium lauryl ether sulfate (SLES) and cocamidopropyl betaine (CAPB) at 3:1 mass ratios; 2) SLES, CAPB and coco-glucoside at 2:1:1 mass ratios. Test samples were prepared by mixing perfume ingredients with the surfactant bases and vigorously stirred for 24 hrs. Concentration of perfume ingredients in the bases was 0.5% wt. Samples with transparent appearance were selected for antimicrobial testing.
Antimicrobial efficacy was tested against a representative Gram-negative bacterial strain, Escherichia coli ATCC 10536, using robotic bacteria contact time (BCT) test based on European standard EN-1276 and EP2787827(B1).
Preparation of screening plate and dilution plate: Aliquots (270 µl) of compositions were dispensed into the wells of a 96-well microtiter plate (MTP) along two columns (B1-H1, and B7-H7), and 270 µl of MilliQ water was added to well A1 and A7 as the control samples. This MTP was labelled as the “Screening plate”. In another MTP, labelled as the “Dilution plate”, 270 µL of Dey-Engley (D/E) neutralizing solution was added to column 1 and column 7. 270 µl of tryptone diluent solution was added to columns 2-6 and columns 8-12 of the Dilution MTP by a Hamilton robotic liquid handling station.
BCT test & neutralization & dilution: Bacterial stock (30 µl) was then added to columns 1 of the ‘Screening plate’ and mixed by a Hamilton robotic liquid handling station. After a contact time of 45 seconds, 30 µl of the mixtures in column 1 were transferred into the corresponding wells of column 1 of the ‘Dilution plate’. After neutralizing for 5 minutes in the D/E neutralizing solution, 30 µl of the neutralized mixtures were transferred from column 1 to column 2 of the Dilution MTP and mixed, followed by transferring 30 µl of the mixtures from column 2 into column 3. This process was repeated serially diluting the bacteria suspensions across the plate to column 6. Bacterial stock (30 µl) was then added to columns 7 of the ‘Screening plate’ and mixed by a Hamilton robotic liquid handling station. After a contact time of 45 seconds, 30 µl of the mixtures in column 7 were transferred into the corresponding wells of column 7 of the ‘Dilution plate’. After neutralizing for 5 minutes in the D/E neutralizing solution, 30 µl of the mixtures were transferred from column 7 to column 8 of the Dilution MTP and mixed, followed by transferring further 30 µl mixtures from column 8 into column 9. This process was repeated serially diluting the bacteria suspensions across the plate to column 12.
Plating: 30 µl volumes from each well in the Dilution MTP were transferred onto four Tryptone Soya Agar (TSA) plates. The TSA plates were allowed to stand for about two hours so that the 30 µl inocula spots could dry and the plates were then inverted and incubated overnight at 37° C. for 24 hours. After incubation, colonies were counted.
Calculating log reduction: Select the dilutions with colony counts, and calculate the viable cell counts (CFU/mL) of mixture in ‘Screening plate’, and log reduction against the control MilliQ sample was calculated.

[3] = tested on: E. coli ATCC 10536; assay: Bacterial contact time (BCT) test of perfume ingredients in 20% ethanol solution (EN-1276 based); type: cell-based, Escherichia coli; conditions: 20% EtOH, 45 s
Description: Bacterial suspensions of E. coli ATCC 10536 were prepared for antimicrobial testing as follows. Stock cultures stored at -80° C. were sub-cultured onto Tryptic Soy Agar (TSA) plate, and incubated at 37° C. for 24 h to obtain single colonies. Single colonies of the primary cultures were streaked onto TSA plates and incubated at 37° C. for 24 h to prepare the secondary cultures. Single colonies of secondary cultures were inoculated into 50 mL of Tryptic Soy broth (TSB), incubated at 37° C. 180 rpm for 18 h. Aliquots (0.5 ml) of the 18 h culture were inoculated into 50 ml of fresh TSB, and incubated at 37° C. 180 rpm for 2- 3 hours. When the OD600 nm value of the broth reached 1-2, cells were harvested by centrifugation at 5,000 rpm for 10 min, and then resuspended in the same fresh broth media to achieve the target level of 1-5 × 10^8 colony forming unit (CFU)/mL. This suspension was used for further antimicrobial tests.
Unless indicated otherwise, log reduction testing according to the present invention is determined in accordance with the following method.
Bacterial contact time (BCT) test based on European standard EN-1276 was used to determine dose dependent bactericidal activity of perfume ingredients in 20% ethanol solutions.
Perfume ingredients of various concentrations (doses) were prepared in 40% ethanol solutions. Eleven replicates of each sample were added into 96-well microtiter plates (120 µl per well) in column 1-11 of one row, with row B as the control sample of the ethanol solution. Then, 120 µl of cell suspension at a concentration of approximately 1-5 × 10^8 CFU/ML (as prepared above) were added to each well of the microtiter plate. A specified contact time (45 s) was allowed for target bacterial strains. At the end of the contact time, serial dilutions were prepared in 96 well plates with growth media: 3 times of 1 in 10 dilutions and followed by 17 times of 1 in 2 dilutions. Each plate was sealed and incubated at 37° C. under agitation (180 rpm). After incubation, turbidity of the wells (OD 600 nm) was recorded by Tecan microplate reader. Turbid cells were regarded as positive growth of viable cells. The total number of viable cells (log CFU/mL) for each sample was calculated. And the log reduction for each test composition at the final concentration (dose) was calculated against the control sample of the 20% ethanol solution.
Table 20 show the bactericidal dose related effect (log reduction) and calculated effect fraction of the Mixture C and compositions against E. coli ATCC 10536. Stock of compositions were prepared in 100% ethanol, then diluted in MilliQ water to obtain 2 × final concentration in 40% ethanol. BCT tests were conducted on samples against E. coli for a contact time of 45 s.

[4] = 0.5% perfume ingredient, Base 1: SLES 1.875%, CAPB 0.625%, contact 45 s, read-out: Log reduction in Base 1 (Log CFU/mL)
[5] = 0.5% perfume ingredient, CAPB 0.75%, contact 45 s
[6] = 0.5% perfume ingredient, Base 2: SLES 2.25%, CAPB 0.75%, contact 45 s, read-out: Log reduction (Log CFU/mL) Base 2
[7] = model base 1, table by functional group, read-out: Log reduction in Base 1 (Log CFU/mL)

## CCCc1ccc2c(c1)OCC(=O)CO2 [7-propyl-2H,4H-1,5-benzodioxepin-3-one]
[1]
  EACN: -40.99
[2]; [4]
  log reduction at 0.5 %: 0

## CC(C)=CCC/C(C)=C/CO [(E)-3,7-dimethyl-2,6-octadien-1-ol]
[3]; dose 0.040% w/v
  Effect fraction: -0.020
  Log reduction: -0.175
[3]; dose 0.050% w/v
  Effect fraction: 0.130
  Log reduction: 0.909
[3]; dose 0.055% w/v
  Effect fraction: 0.350
  Log reduction: 2.474
[3]; dose 0.060% w/v
  Effect fraction: 0.660
  Log reduction: 4.760
[3]; dose 0.070% w/v
  Effect fraction: 1.000
  Log reduction: 7.160
[1]
  EACN: -28.65
[2]; [5]
  Log reduction (Log CFU/mL) Base 3: 4.2 Log CFU/mL
  Log reduction (Log CFU/mL) Base 4: Insoluble
[2]; [4]
  log reduction at 0.5 %: > 5.4
[2]; [6]
  log reduction at 0.5 %: 0.5
[2]; [7]
  log reduction at 0.5 %: > 5.5

## CC1=CC(C)C(CO)C(C)C1 (racemic) [(+-)-2,4,6-trimethyl-3-cyclohexene-1-methanol]
[1]
  EACN: -25.02

## CC(C)=CCC/C(C)=C\C=O [(2Z)-3,7-dimethyl-2,6-octadienal OR (2E)-3,7-dimethyl-2,6-octadienal]
[1]
  EACN: -5.09

## CC(C)=CCC/C(C)=C\CO [(Z)-3,7-dimethyl-2,6-octadien-1-ol]
[1]
  EACN: -28.26
[2]; [5]
  Log reduction (Log CFU/mL) Base 3: 4.9 Log CFU/mL
  Log reduction (Log CFU/mL) Base 4: 4.5 Log CFU/mL
[2]; [4]
  log reduction at 0.5 %: > 5.4
[2]; [6]
  log reduction at 0.5 %: 0.5
[2]; [7]
  log reduction at 0.5 %: > 5.5

## CC/C=C\CC1=C(C)CCC1=O [3-methyl-2-[(2Z)-2-penten-1-yl]-2-cyclopenten-1-one]
[1]
  EACN: -8.51

## CCCCCCCCCCC=O [undecanal]
[1]
  EACN: 4.59

## CC/C=C\CC/C=C/CO [(2E,6Z)-2,6-nonadien-1-ol]
[1]
  EACN: -35.12
[2]; [5]
  Log reduction (Log CFU/mL) Base 3: 3.9 Log CFU/mL
  Log reduction (Log CFU/mL) Base 4: >4.5 Log CFU/mL
[2]; [4]
  log reduction at 0.5 %: 5.6
[2]; [6]
  log reduction at 0.5 %: 0.5
[2]; [7]
  log reduction at 0.5 %: > 5.5

## CC(CO)c1ccccc1 (racemic) [(+-)-2-phenyl-1-propanol]
[1]
  EACN: -29.67
[2]; [4]
  log reduction at 0.5 %: -0.3

## CCCCCC1CCCC(=O)O1 (racemic) [(+-)-6-pentyltetrahydro-2H-pyran-2-one]
[1]
  EACN: -13.27

## CCOC(=O)Cc1ccccc1 [ethyl phenylacetate]
[1]
  EACN: -7.26

## CC1=CCC(C(C)(C)O)CC1 (racemic) [(+-)-alpha-terpineol]
[1]
  EACN: -16.69
[2]; [4]
  log reduction at 0.5 %: 1.6

## C/C=C/c1ccc(O)c(OC)c1 [2-methoxy-4-[(1E)-1-propen-1-yl]phenol]
[1]
  EACN: -42.88
[2]; [4]
  log reduction at 0.5 %: 0

## CC(C=O)Cc1ccc2c(c1)OCO2 (racemic) [(+-)-3-(1,3-benzodioxol-5-yl)-2-methylpropanal]
[1]
  EACN: -11.56

## O=COCCc1ccccc1 [2-phenylethyl formate]
[1]
  EACN: -6.21
[2]; [4]
  log reduction at 0.5 %: 0.3

## CC/C(=C\C[C@H]1CC=C(C)C1(C)C)CO [(-)-(2E)-2-ethyl-4-[(1R)-2,2,3-trimethyl-3-cyclopenten-1-yl]-2-buten-1-ol]
[1]
  EACN: -23.86
[2]; [5]
  Log reduction (Log CFU/mL) Base 3: Insoluble
  Log reduction (Log CFU/mL) Base 4: Insoluble
[2]; [4]
  log reduction at 0.5 %: -0.2
[2]; [6]
  log reduction at 0.5 %: -1

## CC(C)(C)C1CCC(=O)CC1 [4-(2-methyl-2-propanyl)cyclohexanone]
[1]
  EACN: -3.78

## Cc1ccc2c(c1)CC(C)(CO)C2 (racemic) [(+-)-2,5-dimethyl-2-indanmethanol]
[1]
  EACN: -33.01

## CC(=O)OC(C)c1ccccc1 (racemic) [(+-)-1-phenylethyl acetate]
[1]
  EACN: -0.99
[2]; [5]
  Log reduction (Log CFU/mL) Base 3: 0.2 Log CFU/mL
  Log reduction (Log CFU/mL) Base 4: Insoluble
[2]; [4]
  log reduction at 0.5 %: 0.6 ± 1
[2]; [6]
  log reduction at 0.5 %: 0

## CCCCC(CC)CO (stereo not shown) [2-ethyl-1-hexanol]
[3]; dose 0.060% w/v
  Effect fraction: 0.050
  Log reduction: 0.367
[3]; dose 0.065% w/v
  Effect fraction: 0.100
  Log reduction: 0.728
[3]; dose 0.070% w/v
  Effect fraction: 0.290
  Log reduction: 2.052
[3]; dose 0.075% w/v
  Effect fraction: 0.510
  Log reduction: 3.678
[3]; dose 0.080% w/v
  Effect fraction: 0.800
  Log reduction: 5.760
[1]
  EACN: -22.63
[2]; [4]
  log reduction at 0.5 %: 3.6
[2]; [7]
  log reduction at 0.5 %: 3.6
